pIC50: −log10 of the molar value.
Columns and labels:
[1] = Induction of apoptosis in mouse BaF3 cells harboring CCDC6-RET G810C mutant assessed as viable cells at 10 nM incubated for 48 hrs by Annexin V-PE staining based flow cytometry analysis (Rvb =86.47%); assay type: functional; conditions: read-out: Activity
[2] = Induction of apoptosis in mouse BaF3 cells harboring CCDC6-RET assessed as necrotic cells at 30 nM incubated for 48 hrs by Annexin V-PE staining based flow cytometry analysis (Rvb =0.19%); assay type: functional
[3] = target: Proto-oncogene tyrosine-protein kinase receptor Ret (Homo sapiens, UniProt P07949, V804M); assay: Inhibition of RET (unknown origin) V804M mutant
Chain of Proto-oncogene tyrosine-protein kinase receptor Ret (Homo sapiens, UniProt P07949, V804M) (P07949 29-1114 V804M limits assumed): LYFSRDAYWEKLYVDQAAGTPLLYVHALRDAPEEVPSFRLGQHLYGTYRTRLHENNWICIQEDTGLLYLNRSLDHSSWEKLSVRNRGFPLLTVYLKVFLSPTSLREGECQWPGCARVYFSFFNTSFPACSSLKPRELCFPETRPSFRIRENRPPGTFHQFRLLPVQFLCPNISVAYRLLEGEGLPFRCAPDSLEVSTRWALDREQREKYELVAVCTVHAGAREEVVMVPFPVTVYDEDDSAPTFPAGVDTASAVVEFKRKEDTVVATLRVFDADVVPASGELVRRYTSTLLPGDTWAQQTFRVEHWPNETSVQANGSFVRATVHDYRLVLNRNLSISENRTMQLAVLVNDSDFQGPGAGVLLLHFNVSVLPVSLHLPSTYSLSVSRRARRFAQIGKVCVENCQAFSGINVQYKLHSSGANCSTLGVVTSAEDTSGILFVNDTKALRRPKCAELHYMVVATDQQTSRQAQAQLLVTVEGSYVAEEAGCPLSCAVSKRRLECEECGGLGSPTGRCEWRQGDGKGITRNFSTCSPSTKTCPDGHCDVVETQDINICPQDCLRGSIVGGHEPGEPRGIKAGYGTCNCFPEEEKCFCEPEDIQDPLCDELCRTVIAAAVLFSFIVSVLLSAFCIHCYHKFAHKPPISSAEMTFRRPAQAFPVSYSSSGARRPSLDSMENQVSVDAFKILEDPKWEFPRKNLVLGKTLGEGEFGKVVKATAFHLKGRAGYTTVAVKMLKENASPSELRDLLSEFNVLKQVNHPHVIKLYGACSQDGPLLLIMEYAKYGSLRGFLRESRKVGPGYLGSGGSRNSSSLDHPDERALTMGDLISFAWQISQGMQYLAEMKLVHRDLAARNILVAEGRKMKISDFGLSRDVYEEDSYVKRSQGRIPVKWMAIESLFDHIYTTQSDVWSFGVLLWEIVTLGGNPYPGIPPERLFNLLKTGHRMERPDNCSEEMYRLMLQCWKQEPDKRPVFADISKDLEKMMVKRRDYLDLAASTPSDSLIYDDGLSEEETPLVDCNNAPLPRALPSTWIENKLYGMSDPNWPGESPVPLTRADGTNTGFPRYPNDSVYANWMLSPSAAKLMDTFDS

[4] = Induction of cell cycle arrest in mouse BaF3 cells harboring CCDC6-RET assessed as accumulation of cells at G0/G1 phase at 300 nM incubated for 24 hrs by propidium iodide staining based analysis (reference value: 52.51%); assay type: functional
[5] = Induction of cell cycle arrest in mouse BaF3 cells harboring CCDC6-RET assessed as accumulation of cells at G0/G1 phase at 100 nM incubated for 24 hrs by propidium iodide staining based analysis (reference value: 52.51%); assay type: functional
[6] = system: Proto-oncogene tyrosine-protein kinase receptor Ret (Homo sapiens), P07949 [V804M]; assay: Inhibition of RET (unknown origin) V804M mutant at 1 uM relative to control
Chain of Proto-oncogene tyrosine-protein kinase receptor Ret (Homo sapiens), P07949 [V804M] (P07949 whole entry V804M): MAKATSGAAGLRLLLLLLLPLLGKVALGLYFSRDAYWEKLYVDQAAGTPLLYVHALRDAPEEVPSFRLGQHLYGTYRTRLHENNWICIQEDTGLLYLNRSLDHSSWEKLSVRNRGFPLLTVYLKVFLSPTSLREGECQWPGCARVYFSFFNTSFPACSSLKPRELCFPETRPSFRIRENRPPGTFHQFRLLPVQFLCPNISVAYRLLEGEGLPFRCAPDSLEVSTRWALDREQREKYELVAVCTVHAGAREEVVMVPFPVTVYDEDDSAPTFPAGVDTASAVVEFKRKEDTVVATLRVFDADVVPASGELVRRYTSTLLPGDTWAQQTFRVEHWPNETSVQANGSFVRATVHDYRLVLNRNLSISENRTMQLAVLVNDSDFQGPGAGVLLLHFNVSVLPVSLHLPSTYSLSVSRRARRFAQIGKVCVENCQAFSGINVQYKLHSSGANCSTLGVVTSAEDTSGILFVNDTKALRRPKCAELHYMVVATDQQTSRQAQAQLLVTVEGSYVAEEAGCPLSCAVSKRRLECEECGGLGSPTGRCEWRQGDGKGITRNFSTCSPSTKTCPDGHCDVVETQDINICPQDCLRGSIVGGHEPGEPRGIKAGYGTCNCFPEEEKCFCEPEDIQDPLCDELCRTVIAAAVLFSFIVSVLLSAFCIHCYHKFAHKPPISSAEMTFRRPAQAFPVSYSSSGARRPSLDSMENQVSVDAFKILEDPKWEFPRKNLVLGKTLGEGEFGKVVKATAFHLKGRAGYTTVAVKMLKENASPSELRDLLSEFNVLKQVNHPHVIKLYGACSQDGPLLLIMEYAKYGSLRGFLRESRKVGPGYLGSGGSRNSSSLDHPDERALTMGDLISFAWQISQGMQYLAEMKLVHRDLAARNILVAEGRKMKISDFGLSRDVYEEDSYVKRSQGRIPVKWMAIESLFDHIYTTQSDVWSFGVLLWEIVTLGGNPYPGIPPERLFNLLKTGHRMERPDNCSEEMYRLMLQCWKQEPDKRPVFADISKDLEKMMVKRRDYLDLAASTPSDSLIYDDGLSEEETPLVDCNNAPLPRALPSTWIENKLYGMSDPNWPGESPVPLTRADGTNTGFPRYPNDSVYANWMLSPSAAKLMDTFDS

[7] = Induction of apoptosis in mouse BaF3 cells harboring CCDC6-RET G810R mutant assessed as necrotic cells at 300 nM incubated for 48 hrs by Annexin V-PE staining based flow cytometry analysis (Rvb =0.30%); assay type: functional
[8] = Induction of apoptosis in mouse BaF3 cells harboring CCDC6-RET G810C mutant assessed as late apoptotic cells at 10 nM incubated for 48 hrs by Annexin V-PE staining based flow cytometry analysis (Rvb =4.30%); assay type: functional
[9] = Induction of cell cycle arrest in mouse BaF3 cells harboring CCDC6-RET G810R mutant assessed as accumulation of cells at G0/G1 phase at 10 nM incubated for 24 hrs by propidium iodide staining based analysis (reference value: 52.63%); assay type: functional
[10] = Induction of apoptosis in mouse BaF3 cells harboring CCDC6-RET G810R mutant assessed as early apoptotic cells at 100 nM incubated for 48 hrs by Annexin V-PE staining based flow cytometry analysis (Rvb =10 %); assay type: functional
BaF3 [11] = assay: Inhibition of RET phosphorylation in mouse BaF3 cells harboring CCDC6-RET G810C mutant incubated for 12 hrs by Western blotting analysis; assay type: cell-based; conditions: dose <= 300.0 nM
[12] = Induction of cell cycle arrest in mouse BaF3 cells harboring CCDC6-RET G810C mutant assessed as accumulation of cells at S phase at 10 nM incubated for 24 hrs by propidium iodide staining based analysis (reference value: 12.47%); assay type: functional
[13] = Induction of cell cycle arrest in mouse BaF3 cells harboring CCDC6-RET G810C mutant assessed as accumulation of cells at G2/M phase at 10 nM incubated for 24 hrs by propidium iodide staining based analysis (reference value: 34.75%); assay type: functional
[14] = Induction of apoptosis in mouse BaF3 cells harboring CCDC6-RET G810C mutant assessed as late apoptotic cells at 100 nM incubated for 48 hrs by Annexin V-PE staining based flow cytometry analysis (Rvb =4.30%); assay type: functional
[15] = Induction of cell cycle arrest in mouse BaF3 cells harboring CCDC6-RET assessed as accumulation of cells at G2/M phase at 30 nM incubated for 24 hrs by propidium iodide staining based analysis (reference value: 34.11%); assay type: functional
[16] = Induction of apoptosis in mouse BaF3 cells harboring CCDC6-RET G810R mutant assessed as viable cells at 30 nM incubated for 48 hrs by Annexin V-PE staining based flow cytometry analysis (Rvb =86.40%); assay type: functional; conditions: read-out: Activity
[17] = Induction of apoptosis in mouse BaF3 cells harboring CCDC6-RET assessed as early apoptotic cells at 30 nM incubated for 48 hrs by Annexin V-PE staining based flow cytometry analysis (Rvb =6.21%); assay type: functional
[18] = Induction of apoptosis in mouse BaF3 cells harboring CCDC6-RET assessed as viable cells at 30 nM incubated for 48 hrs by Annexin V-PE staining based flow cytometry analysis (Rvb =91.16%); assay type: functional; conditions: read-out: Activity
[19] = Induction of cell cycle arrest in mouse BaF3 cells harboring CCDC6-RET G810C mutant assessed as accumulation of cells at G2/M phase at 300 nM incubated for 24 hrs by propidium iodide staining based analysis (reference value: 34.75%); assay type: functional
BaF3 [20] = assay: Inhibition of SHC phosphorylation in mouse BaF3 cells harboring CCDC6-RET incubated for 12 hrs by Western blotting analysis; assay type: cell-based; conditions: dose <= 300.0 nM
[21] = target: Proto-oncogene tyrosine-protein kinase receptor Ret (Homo sapiens, UniProt P07949); assay: Inhibition of RET (unknown origin)
Chain of Proto-oncogene tyrosine-protein kinase receptor Ret (Homo sapiens, UniProt P07949) (P07949 whole entry): as the sequence (P07949 whole entry V804M) above, with M804V counted along it

[22] = Induction of cell cycle arrest in mouse BaF3 cells harboring CCDC6-RET assessed as accumulation of cells at G0/G1 phase at 30 nM incubated for 24 hrs by propidium iodide staining based analysis (reference value: 52.51%); assay type: functional
BaF3 [23] = assay: Inhibition of RET phosphorylation in mouse BaF3 cells harboring CCDC6-RET G810R mutant incubated for 12 hrs by Western blotting analysis; assay type: cell-based; conditions: dose <= 300.0 nM
[24] = Induction of apoptosis in mouse BaF3 cells harboring CCDC6-RET G810R mutant assessed as late apoptotic cells at 100 nM incubated for 48 hrs by Annexin V-PE staining based flow cytometry analysis (Rvb =3.21%); assay type: functional
[25] = Induction of apoptosis in mouse BaF3 cells harboring CCDC6-RET G810C mutant assessed as necrotic cells at 10 nM incubated for 48 hrs by Annexin V-PE staining based flow cytometry analysis (Rvb =0.48%); assay type: functional
[26] = Induction of apoptosis in mouse BaF3 cells harboring CCDC6-RET G810R mutant assessed as necrotic cells at 100 nM incubated for 48 hrs by Annexin V-PE staining based flow cytometry analysis (Rvb =0.30%); assay type: functional
[27] = Induction of cell cycle arrest in mouse BaF3 cells harboring CCDC6-RET assessed as accumulation of cells at S phase at 100 nM incubated for 24 hrs by propidium iodide staining based analysis (reference value: 13.27%); assay type: functional
[28] = Induction of apoptosis in mouse BaF3 cells harboring CCDC6-RET assessed as late apoptotic cells at 30 nM incubated for 48 hrs by Annexin V-PE staining based flow cytometry analysis (Rvb =2.44%); assay type: functional
[29] = Induction of apoptosis in mouse BaF3 cells harboring CCDC6-RET G810R mutant assessed as viable cells at 100 nM incubated for 48 hrs by Annexin V-PE staining based flow cytometry analysis (Rvb =86.40%); assay type: functional; conditions: read-out: Activity
[30] = Induction of cell cycle arrest in mouse BaF3 cells harboring CCDC6-RET assessed as accumulation of cells at S phase at 30 nM incubated for 24 hrs by propidium iodide staining based analysis (reference value: 13.27%); assay type: functional

COc1cncc(-c2cn[nH]c2/C=C/c2ccc(NC(=O)Nc3cc(C(C)(C)C(F)(F)F)on3)c(Cl)c2)c1
viability at 0.01 µM [1]: 87.1%
Activity [2]: 0.03%
pIC50 [3]: 6.79
Activity [4]: 84.1%
Activity [5]: 69.43%
inhibition [6]: 98.6%
Activity [7]: 0.07%
Activity [8]: 3.24%
Activity [9]: 54.03%
Activity [10]: 2.7%
inhibition (BaF3 [11]): Dose-dependent-effect
Activity [12]: 12.31%
Activity [13]: 33.74%
Activity [14]: 1.87%
Activity [15]: 30.23%
viability at 0.03 µM [16]: 87.4%
Activity [17]: 22.34%
viability at 0.03 µM [18]: 76.8%
Activity [19]: 23.18%
inhibition (BaF3 [20]): Dose-dependent-effect
pIC50 [21]: 8.38
Activity [22]: 56.2%
inhibition (BaF3 [23]): Dose-dependent-effect
Activity [24]: 10.19%
Activity [25]: 0.49%
Activity [26]: 0.79%
Activity [27]: 7.33%
Activity [28]: 0.8%
viability at 0.1 µM [29]: 74%
Activity [30]: 13.33%

Reference: ChEMBL document CHEMBL6103575, “Design, synthesis and evaluation of (E)-1-(4-(2-(1H-pyrazol-5-yl)vinyl)phenyl) derivatives as next generation selective RET inhibitors overcoming RET solvent front mutations (G810C/R)” (Eur J Med Chem, 2025)
